The text below walks through data of US12171833B2, “Mucoadhesive polymeric drug delivery compositions and methods” (The University of British Columbia, priority 2020, dated 2024).

Series [1] in a line: In vitro drug release from formulation A (dialysis mini chamber, PBS, 37° C.). As to conditions: 100 mg, PBS pH 7.4, 37° C., up to 30 hours. Format: physicochemical. On the procedure: Formulation A of PLGA 5%, HA 3%, PEG 92% was made up as described in TABLE 8. […] For the protein study the mini chamber was not closed but a small retaining sponge applied. The chamber was placed in 5 mL of PBS (pH 7.4 or PBS containing albumin to increase the solubility of docetaxel) and placed in an incubator at 37° C.

For series [2] the following is noted: 30 min IV infusion, cited from earlier work.

Structures are written as SMILES.

As to `Nc1ccn([C@@H]2O[C@H](CO)[C@@H](O)C2(F)F)c(=O)n1` [gemcitabine], the “drug release from paste” value in series [1] is given as “faster than the other two agents”. In addition, in series [2] (1250 mg/m^2 (32.1 mg/kg), literature), the AUC0-inf was 12500 ng·h/mL. In addition, in series [2] (1250 mg/m^2, literature), the kel is 3.18 h⁻¹ and the “t1/2 (terminal)” value was 13.8 min.
